Reference: PubChem BioAssay (NCI)
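Briefly, cells in 96-well plates were exposed to five compound concentrations for 48 h, and endpoints were estimated by linear interpolation. Definition used: TGI = concentration required for complete inhibition of growth.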

Legend:
Test in all cases: DTP human tumour cell line panel, 48 h
[1] = test system: SF-539 CNS
[2] = test system: HOP-92 NSCLC
[3] = test system: NCI-H226 lung
[4] = test system: A498 renal
[5] = test system: HCT-116 colon
[6] = test system: HL-60(TB) leukemia
[7] = test system: SN12C renal
[8] = test system: OVCAR-4 ovarian
[9] = test system: DU-145 prostate
[10] = test system: MOLT-4 leukemia

Question: `CC1(C)CCc2c(ccc(C(=O)/C=C/c3ccc(O)cc3)c2O)O1` was tested. Which TGI [1] did it give?
Answer: 22 µM

Question: And the TGI [2]?
Answer: 24.4 µM

Question: And the TGI [3]?
Answer: 22.3 µM

Question: What about the TGI [4] of the same compound?
Answer: 29.8 µM

Question: And the TGI [5]?
Answer: 20 µM

Question: What about the TGI [6] of the same compound?
Answer: 44.2 µM

Question: And the TGI [7]?
Answer: 20.7 µM

Question: And the TGI [8]?
Answer: 19.6 µM

Question: What about the TGI [9] of the same compound?
Answer: 18.6 µM

Question: And the TGI [10]?
Answer: 69.1 µM

Question: What does the source list for `C=CCn1c(=O)ccn(/C(=C/C(=O)OCC)C(=O)OCC)c1=O`?
Answer: TGI [1]: 49.5 µM; TGI [2]: 9.15 µM; TGI [3]: > 31.6 µM; TGI [4]: 33.3 µM; TGI [5]: > 41.5 µM; TGI [6]: 3.98 µM; TGI [7]: 25.2 µM; TGI [8]: > 51.4 µM; TGI [9]: 50.2 µM; TGI [10]: 10.3 µM

Question: What does the source list for `COc1ccc(/C=N/NC(=O)c2ccc(O)c(CN(C)C)c2)cc1`?
Answer: TGI [1]: > 100 µM; TGI [2]: > 100 µM; TGI [3]: > 100 µM; TGI [4]: 37.4 µM; TGI [5]: > 100 µM; TGI [6]: > 100 µM; TGI [7]: > 100 µM; TGI [8]: > 100 µM; TGI [9]: > 100 µM; TGI [10]: > 100 µM

Question: Which results are given for `CO/N=C(/C(=O)OC)c1ccccc1COc1ccccc1C(F)(F)F`?
Answer: TGI [1]: 59.2 µM; TGI [2]: > 100 µM; TGI [3]: > 100 µM; TGI [4]: > 100 µM; TGI [5]: > 100 µM; TGI [6]: 51.3 µM; TGI [7]: > 100 µM; TGI [8]: 57.9 µM; TGI [9]: > 100 µM; TGI [10]: > 100 µM

Question: With `CCOC(=O)CC/C(=N/Nc1ccc(Cl)cc1[N+](=O)[O-])C(=O)OCC` as the compound, how does the TGI [1] read?
Answer: > 100 µM

Question: And the TGI [2]?
Answer: > 100 µM

Question: What about the TGI [3] of the same compound?
Answer: > 100 µM

Question: And the TGI [4]?
Answer: > 100 µM

Question: What about the TGI [5] of the same compound?
Answer: > 100 µM

Question: What about the TGI [6] of the same compound?
Answer: > 100 µM

Question: What about the TGI [7] of the same compound?
Answer: > 100 µM

Question: What about the TGI [8] of the same compound?
Answer: > 100 µM

Question: What about the TGI [9] of the same compound?
Answer: > 100 µM

Question: And the TGI [10]?
Answer: > 100 µM

Question: What does the source list for `C=C(C)[C@H]1C2=CC(C(=O)OC)=C(C[C@H](C(=C)C)[C@@H](O)[C@@H](O)C3=C[C@H]1OC3=O)O2`?
Answer: TGI [1]: > 100 µM; TGI [2]: > 100 µM; TGI [3]: > 100 µM; TGI [4]: > 100 µM; TGI [5]: > 100 µM; TGI [6]: > 100 µM; TGI [7]: > 100 µM; TGI [8]: > 100 µM; TGI [9]: > 100 µM; TGI [10]: > 100 µM

Question: How did the TGI [1] turn out when `O=C(c1ccccc1)c1ccc2c(c1)NC(=O)c1ccccc1SSc1ccccc1C(=O)N2` was run?
Answer: > 100 µM

Question: What about the TGI [2] of the same compound?
Answer: > 100 µM

Question: What about the TGI [3] of the same compound?
Answer: > 100 µM

Question: And the TGI [4]?
Answer: > 100 µM

Question: What about the TGI [5] of the same compound?
Answer: > 100 µM

Question: What about the TGI [6] of the same compound?
Answer: > 100 µM

Question: What about the TGI [7] of the same compound?
Answer: > 100 µM

Question: What about the TGI [8] of the same compound?
Answer: > 100 µM

Question: And the TGI [9]?
Answer: > 100 µM

Question: What about the TGI [10] of the same compound?
Answer: > 100 µM

Question: `O=C(O)C(O)C(O)C(O)C(O)CO` (stereo not given) was tested. Which TGI [1] did it give?
Answer: > 100 µM

Question: What about the TGI [2] of the same compound?
Answer: > 100 µM

Question: And the TGI [3]?
Answer: > 100 µM

Question: And the TGI [4]?
Answer: > 100 µM

Question: And the TGI [5]?
Answer: > 100 µM

Question: What about the TGI [6] of the same compound?
Answer: > 100 µM

Question: And the TGI [7]?
Answer: > 100 µM

Question: What about the TGI [8] of the same compound?
Answer: > 100 µM

Question: And the TGI [9]?
Answer: > 100 µM

Question: What about the TGI [10] of the same compound?
Answer: > 100 µM

Question: Which TGI [1] does the source give for `CC(C)Oc1cccc(N2C(=NCc3c[nH]c4ccccc34)Nc3ccncc3S2(=O)=O)c1` here?
Answer: > 100 µM

Question: And the TGI [2]?
Answer: 56.6 µM

Question: And the TGI [3]?
Answer: > 100 µM

Question: What about the TGI [4] of the same compound?
Answer: > 100 µM

Question: And the TGI [5]?
Answer: > 100 µM

Question: And the TGI [6]?
Answer: > 100 µM

Question: What about the TGI [7] of the same compound?
Answer: > 100 µM

Question: And the TGI [8]?
Answer: > 100 µM

Question: And the TGI [9]?
Answer: > 100 µM

Question: And the TGI [10]?
Answer: 96.7 µM

Question: With `C=C1C(=O)[C@@]23CC[C@@H]4[C@@]5(C)CCC[C@@]4(OC5=O)[C@@]2(C)CC[C@@H]1C3` as the compound, how does the TGI [1] read?
Answer: 6.3 µM

Question: And the TGI [2]?
Answer: 57.7 µM

Question: What about the TGI [3] of the same compound?
Answer: 9.15 µM

Question: And the TGI [4]?
Answer: 11.8 µM

Question: What about the TGI [5] of the same compound?
Answer: 2.92 µM

Question: What about the TGI [6] of the same compound?
Answer: > 100 µM

Question: What about the TGI [7] of the same compound?
Answer: 23.5 µM

Question: And the TGI [8]?
Answer: 5.28 µM

Question: And the TGI [9]?
Answer: 12.2 µM

Question: What about the TGI [10] of the same compound?
Answer: > 26.1 µM

Question: Which results are given for `CC1(C)C=CC(=O)C(O)C(C)(C)C1=O` (stereo not given)?
Answer: TGI [1]: > 100 µM; TGI [2]: > 100 µM; TGI [3]: > 100 µM; TGI [4]: > 100 µM; TGI [5]: > 100 µM; TGI [6]: > 100 µM; TGI [7]: > 100 µM; TGI [8]: > 100 µM; TGI [9]: > 100 µM; TGI [10]: 69.7 µM

Question: What does the source list for `CC(C)N1CCN(c2ccc(OCC3COC(Cn4cncn4)(c4ccc(Cl)cc4Cl)O3)cc2)CC1` (stereo not given)?
Answer: TGI [1]: 27.3 µM; TGI [2]: 30.8 µM; TGI [3]: 30.1 µM; TGI [4]: 27.4 µM; TGI [5]: 23.4 µM; TGI [6]: 33.3 µM; TGI [7]: 30.7 µM; TGI [8]: 35.6 µM; TGI [9]: 31.5 µM; TGI [10]: 28.8 µM

Question: What does the source list for `COc1ccc(-c2nc3ccccc3c(=S)n2OC(C)=O)cc1`?
Answer: TGI [1]: > 25 µM; TGI [2]: > 25 µM; TGI [3]: > 25 µM; TGI [4]: > 25 µM; TGI [5]: > 25 µM; TGI [6]: 17.2 µM; TGI [7]: > 25 µM; TGI [8]: > 25 µM; TGI [9]: > 25 µM; TGI [10]: > 25 µM
